In PubChem BioAssay AID1963843 (Molecular Pharmacology Branch, DTP, NCI, 2024):
Several values for one entry are separate records, joined by “and”; a condition that tells them apart may be missing. Equal values may be shown once.

Test system: 616215-338-R-J1-PDC complex spheroid viability
Experiment: Anticancer human tumor 616215-338-R-J1-PDC patient-derived colon adenocarcinoma cell line growth inhibition [POLQ]
Conditions: for viability, T/C: stronger effect = lower value
Protocol: Multicellular complex tumor spheroid response to Polymerase (POL) inhibitors (novobiocin, ART-558, RP6685) in combination with a variety of drugs and investigational agents in selected tumor cell lines
The POL inhibitors (novobiocin, ART-558, and RP6685) were evaluated both individually and in combination with standard of care and investigational anticancer small molecules within a complex spheroid model of solid tumors. . Complex spheroids include a stromal component modeled by human endothelial cells (HUVEC) and fibroblasts modeled by human mesenchymal stem cells (MSCs). The concentration ranges selected for each drug and investigational agent were based upon clinically achievable concentrations if the clinical Cmax of the agent was known.
Compounds. The drugs and investigational agents: novobiocin (NSC847541), ART-558 (NSC835418), RP-6685 (NSC848927), peposertib (NSC802822), ceralasertib (NSC780249), elimusertib (NSC800525), camonsertib (NSC841442), AZD-1390 (NSC803789), olaparib (NSC753686), talazoparib (NSC767125), rucaparib (NSC756644), sotorasib (NSC818433), MRTX-1133 (NSC836407), SN-38 (NSC673596), topotecan (NSC609699), epotoside (NSC141540), doxorubicin (NSC123127), gemcitabine (NSC613327), 5-fluorouracil (NSC19893), paclitaxel (NSC125973), vemurafenib (NSC761431), MSA-2 (NSC828583), SN-011 (NSC837082), adavosertib (NSC754352), prexasertib (NSC758257), carboplatin (NSC241240) and oxaliplatin (NSC266046), were obtained from the National Cancer Institute (NCI) Developmental Therapeutics Program Chemical Repository (21). The FDA-approved anticancer drug set is available from the Developmental Therapeutics Program at https://dtp.cancer.gov/organization/dscb/obtaining/. […] The stock solutions were prepared in dimethyl sulfoxide (DMSO, Sigma-Aldrich, St. Louis, MO, cat. D2650), except for the platinum compounds which were prepared in saline (Quality Biological, Gaithersburg, MD, cat. 114-055-101), at 800-fold the tested concentration and stored at -70 degrees C prior to their use. All drugs and investigational agents were tested over a range starting from a high concentration at or near the clinical Cmax and decreasing in half-log increments. If the clinical Cmax for an agent had not been determined, the highest concentration tested was 10 microM, except for SN-38, which was tested at a high concentration of 1 microM.
Cell Culture. All cells were maintained in an incubator at 37 degrees C and 5% CO2 with 95% humidity. The PDC lines were cultured according to standard operating procedures established by the NCI PDMR (https://pdmr.cancer.gov). Table 3 of the manuscript, lists the cell lines along with the number of the three cell types plated to form the mct-spheroids and media for tumor cell growth. After thawing, all PDC lines, except 997537-175-T-J1-PDC and 415267-285-R-J2-PDC, were cultured in Matrigel-coated flasks prepared with a working solution of 1X Ham's F-12 nutrient mix, without supplementation (Thermo Fisher Scientific, cat. 11765054), 100 U/mL penicillin-streptomycin (Thermo Fisher Scientific, cat. 15140122), and 2.5% Matrigel (Corning Inc., Corning, NY, cat. 354248) for the first three passages. The two PDC lines 997537-175-T-J1-PDC and 415267-285-R-J2-PDC were cultured on uncoated flasks. The 857933-349-R-J2-PDC line was cultured in 6C/Colon 1B media containing advanced DMEM/F-12 (Thermo Fisher Scientific, cat. 12634028), 10 mM HEPES (Thermo Fisher Scientific, cat. 15630080), 1X GlutaMAX supplement (Thermo Fisher Scientific, cat. 35050061), 0.1 mg/mL primocin (InvivoGen, San Diego, CA, cat. ant-pm-2), 10% defined fetal bovine serum, heat inactivated (HyClone Laboratories Inc., Logan, UT, cat. SH30070.03HI), 50% L-WRN conditioned media (ATCC, cat. CRL-3276), 1.25 mM N-Acetyl-L-cysteine (Sigma-Aldrich, cat. A9165), 10 mM nicotinamide (Sigma-Aldrich, cat. N0636), 1X B-27 supplement (Thermo Fisher Scientific, cat. 17504044), 1X N-2 supplement (Thermo Fisher Scientific, cat. […]

[1] = compound alone, run of 11/27/2023
[2] = compound alone, run of 12/05/2023
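Note: spheroids exposed to compounds for one week before readout.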
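Throughout, for viability, T/C: percent viability relative to DMSO vehicle wells taken as 100%.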

Row | Compound | viability, T/C (compound 0.0316 µM) | viability, T/C (compound 0.1 µM) | viability, T/C (compound 0.316 µM) | viability, T/C (compound 1 µM) | viability, T/C (compound 3.16 µM) | viability, T/C (compound 10 µM) | IC50 [1] | IC50 (curve of compound) | viability, T/C (compound 0.00316 µM) | viability, T/C (compound 0.01 µM) | IC50 [2] | viability, T/C (compound 0.000316 µM) | viability, T/C (compound 0.001 µM)
1 | COC1C(OC(N)=O)C(O)C(Oc2ccc3c(O)c(NC(=O)c4ccc(O)c(CC=C(C)C)c4)c(=O)oc3c2C)OC1(C)C (stereo unspecified) | 101% [middle of 13 runs] | 102% [middle of 12 runs] | 103% [middle of 13 runs] | 99.2% [middle of 13 runs] | 101% [middle of 13 runs] | 100% [middle of 13 runs] | > 10000 nM |  |  |  |  |  | 
2 | COc1cc(C2c3cc4c(cc3C(OC3OC5COC(C)OC5C(O)C3O)C3COC(=O)C23)OCO4)cc(OC)c1O (stereo unspecified) | 96.8% and 101% and 99.5% | 107% and 95.5% and 104% | 86.7% and 58% and 91.3% | 88.7% and 52.2% and 78.8% | 76.6% and 46.9% and 73% | 46.8% and 28.6% and 54.6% |  | 9060 nM and 1040 nM and > 10000 nM |  |  |  |  | 
3 | COc1cc2cc(C(=O)CCC(=O)O)sc2cc1OC | 99% and 105% and 100% | 97.3% and 102% and 92.3% | 109% and 107% and 92.4% | 95.5% and 105% and 98% | 105% and 104% and 93.1% | 99.8% and 105% and 109% |  | > 10000 nM |  |  |  |  | 
4 | COc1ccc([C@@H](O)c2cc(-c3ncnc4cc(N5CCOCC5)ccc34)c(F)cc2Cl)nn1 | 115% and 87.7% and 103% | 107% and 104% and 100% | 105% and 93.9% and 110% | 93.6% and 86.9% and 104% | 100% and 81.2% and 104% | 69.3% and 54.8% and 75.3% |  | > 10000 nM |  |  |  |  | 
5 | COc1cccc(OCCCN)c1-c1cc(Nc2cnc(C#N)cn2)n[nH]1 | 88.6% and 68.9% and 76.7% | 86.1% and 63.8% and 55.3% | 64.6% and 33.6% and 49.9% | 55.9% and 30.1% and 34.7% |  |  |  | > 1000 nM and 150 nM and 201 nM | 95.5% and 106% and 104% | 101% and 98.7% and 97.4% |  |  | 
6 | COc1cccc2c1C(=O)c1c(O)c3c(c(O)c1C2=O)CC(O)(C(=O)CO)CC3OC1CC(N)C(O)C(C)O1 (stereo unspecified) | 95.8% and 65% and 107% | 89.2% and 52.3% and 101% | 78.2% and 37.8% and 76.8% | 60.1% and 25.3% and 60.5% | 7.28% and 2.34% and 9.83% | 0.55% and 0.17% and 0.93% |  | 1190 nM and 133 nM and 1060 nM |  |  |  |  | 
7 | Cc1cccc(N(C)C(=O)C2C(O)CCN2c2nc(C)cc(C(F)(F)F)c2C#N)c1 (stereo unspecified) | 97.4% [middle of 13 runs] | 99% [middle of 13 runs] | 100% [middle of 13 runs] | 105% [middle of 13 runs] | 104% [middle of 13 runs] | 102% [middle of 12 runs] | > 10000 nM |  |  |  | > 10000 nM |  | 
8 | Cn1ncnc1[C@H]1c2n[nH]c(=O)c3cc(F)cc(c23)N[C@@H]1c1ccc(F)cc1 | 110% and 96.1% and 101% | 105% and 87.5% and 106% |  |  |  |  |  | > 100 nM | 102% and 98.1% and 97.2% | 94% and 95.9% and 104% |  | 90.3% and 102% and 97.5% | 104% and 91.8% and 103%
9 | Nc1ccc(C#CCN(C(=O)Cc2ncc(C(F)(F)F)cc2C(F)(F)F)c2ccc(F)cc2)nn1 | 103% [middle of 13 runs] | 104% [middle of 13 runs] | 105% [middle of 13 runs] | 102% [middle of 13 runs] | 102% [middle of 13 runs] | 94.5% [middle of 13 runs] |  |  |  |  | > 10000 nM |  | 
10 | Nc1ccn(C2OC(CO)C(O)C2(F)F)c(=O)n1 (stereo unspecified) | 49.9% and 23.8% and 51.6% | 31.7% and 15.1% and 34.2% | 23.7% and 12.2% and 23.2% | 30.1% and 13.1% and 30.2% | 31.8% and 14.3% and 32.1% | 34.7% and 16.4% and 33.6% |  | < 31.6 nM |  |  |  |  | 
11 | O=C(Nc1ccc(O)c(NS(=O)(=O)c2ccc(F)cc2)c1)c1ccc(-c2ccccc2)cc1 | 104% and 110% and 106% | 107% and 100% and 90.8% | 107% and 108% and 104% | 108% and 92.6% and 100% | 102% and 106% and 114% | 60.7% and 49.2% and 101% |  | > 10000 nM and 9860 nM |  |  |  |  | 
12 | O=C(c1cc(Cc2n[nH]c(=O)c3ccccc23)ccc1F)N1CCN(C(=O)C2CC2)CC1 | 89.5% and 67.6% and 97.3% | 103% and 72.8% and 110% | 102% and 71.6% and 106% | 101% (2×) and 72.6% | 101% and 73.1% and 87.7% | 99.3% and 58.1% and 60.9% |  | > 10000 nM |  |  |  |  | 
13 | O=c1[nH]cc(F)c(=O)[nH]1 | 83.7% and 97.8% and 96% | 96.6% and 86.5% and 89.8% | 68.4% and 54.6% and 65.8% | 65.9% and 43.5% and 65.6% | 63.8% and 43.7% and 60.7% | 62.4% and 39.2% and 60.1% |  |  |  |  |  |  | 
